We go through four compounds from publication PMC4230996 (Journal of Medicinal Chemistry, 2014).

In data set [1] the test system is mGlu4. The note with it: read-out: hEC50; human mGlu4 PAM potency; cited from earlier work.
Data set [2] concerns the target mGlu4 (Rattus norvegicus, UniProt P31423). The data set is described as follows: PET imaging of [^18F]3 in rats, baseline and blocking studies. In kind it is in vivo, rat (male Sprague–Dawley). The note with it: blocking agent 10 mg/kg injected 5 min before [^18F]3; uptake as area under TAC.
The subject of another data set is mGlu1a. As to the kind of experiment: selectivity functional assay, IPs accumulation in CHO cells. The settings on record: single concentration 10 μM. It counts as cell-based.
The test system of another data set is mGlu5a. The description is as above. In kind it is cell-based. The settings on record: single concentration 10 μM.
The next data set has as its target mGlu8 (Homo sapiens, UniProt O00222). As to the kind of experiment: selectivity test, split luciferase biosensor cAMP assay in transfected CHO cells. It counts as cell-based. The settings on record: single concentration 10 μM. A general note: Changes in cAMP serve as a functional read-out for many G protein-coupled receptors.
Data set [3] is described as follows: stability of 3 in neutral and acidic media by LC–MS. It counts as physicochemical.
For the next data set, the system named is human mGlu4. The note with it: read-out: IC50 (binding affinity to mGlu4); human mGlu4, Merck's patent; cited from earlier work.

The term pIC50 denotes the negative decadic logarithm of the IC50, by convention in mol/L.

Each structure is given as a SMILES string. pEC50, pIC50: −log10 of the molar value.

Regarding `COc1cc(NC(=O)c2ccccn2)ccc1Cl` [Compound 1, N-(chloro-3-methoxyphenyl)-2-picolinamide], the pEC50 with mGlu4 [1] was […].

Chain of mGlu4 (Rattus norvegicus, UniProt P31423) (P31423 33-912): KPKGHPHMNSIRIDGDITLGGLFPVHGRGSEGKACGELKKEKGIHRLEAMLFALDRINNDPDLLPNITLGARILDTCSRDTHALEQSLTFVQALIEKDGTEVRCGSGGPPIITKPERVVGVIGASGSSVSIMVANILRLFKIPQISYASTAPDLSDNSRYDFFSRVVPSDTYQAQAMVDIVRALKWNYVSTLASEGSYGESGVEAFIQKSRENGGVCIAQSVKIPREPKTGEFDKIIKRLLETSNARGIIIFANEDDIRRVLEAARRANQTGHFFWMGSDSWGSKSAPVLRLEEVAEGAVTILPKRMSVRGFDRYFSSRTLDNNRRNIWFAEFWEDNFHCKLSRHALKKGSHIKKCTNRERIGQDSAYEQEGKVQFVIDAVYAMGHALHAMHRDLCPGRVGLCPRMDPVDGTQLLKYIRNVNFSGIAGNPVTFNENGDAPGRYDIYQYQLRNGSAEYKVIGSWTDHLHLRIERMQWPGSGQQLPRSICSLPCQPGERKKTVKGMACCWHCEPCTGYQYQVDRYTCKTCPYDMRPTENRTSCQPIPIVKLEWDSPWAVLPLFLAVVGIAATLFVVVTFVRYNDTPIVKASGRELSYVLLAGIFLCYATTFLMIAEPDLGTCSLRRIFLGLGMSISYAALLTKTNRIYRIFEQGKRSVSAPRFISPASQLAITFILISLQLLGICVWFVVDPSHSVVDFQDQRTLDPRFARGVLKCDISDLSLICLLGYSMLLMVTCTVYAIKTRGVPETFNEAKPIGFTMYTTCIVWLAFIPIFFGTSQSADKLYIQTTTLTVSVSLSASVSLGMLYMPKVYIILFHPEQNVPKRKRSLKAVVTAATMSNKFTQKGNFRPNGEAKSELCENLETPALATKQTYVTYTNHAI
Chain of mGlu8 (O00222 34-908): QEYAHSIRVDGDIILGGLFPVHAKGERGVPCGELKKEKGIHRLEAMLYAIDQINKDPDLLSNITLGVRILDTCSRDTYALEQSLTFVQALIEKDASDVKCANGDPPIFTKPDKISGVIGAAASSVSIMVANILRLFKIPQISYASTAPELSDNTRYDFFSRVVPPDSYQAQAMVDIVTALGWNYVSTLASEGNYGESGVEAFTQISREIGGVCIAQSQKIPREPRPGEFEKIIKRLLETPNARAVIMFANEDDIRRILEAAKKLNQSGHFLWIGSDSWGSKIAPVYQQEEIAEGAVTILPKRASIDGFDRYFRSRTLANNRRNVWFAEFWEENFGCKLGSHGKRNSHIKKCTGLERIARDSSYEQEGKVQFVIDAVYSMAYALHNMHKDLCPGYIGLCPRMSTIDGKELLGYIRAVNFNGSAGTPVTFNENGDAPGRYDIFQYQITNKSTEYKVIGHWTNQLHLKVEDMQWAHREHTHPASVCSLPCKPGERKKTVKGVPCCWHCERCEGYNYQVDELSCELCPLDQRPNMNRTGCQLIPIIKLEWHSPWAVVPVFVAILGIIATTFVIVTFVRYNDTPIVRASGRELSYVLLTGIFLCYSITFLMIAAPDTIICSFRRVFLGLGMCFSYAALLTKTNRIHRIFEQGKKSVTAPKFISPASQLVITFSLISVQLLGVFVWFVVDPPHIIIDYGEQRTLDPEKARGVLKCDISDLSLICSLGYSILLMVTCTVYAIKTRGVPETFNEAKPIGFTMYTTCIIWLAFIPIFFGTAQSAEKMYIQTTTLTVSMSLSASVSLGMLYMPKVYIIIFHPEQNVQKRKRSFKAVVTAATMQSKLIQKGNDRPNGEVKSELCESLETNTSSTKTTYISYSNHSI

`O=C(Nc1cccc(OC(F)F)c1)c1ccccn1` [Compound 2, N-(3-(difluoromethoxy)phenyl)-2-picolinamide]: on mGlu4 [2], the “reduced uptake of [^18F]3 in rat brain regions (blocking effect)” value is listed as 10–20%.

In the case of `O=C(Nc1ccc(N2C(=O)c3cccc(F)c3C2=O)c(Cl)c1)c1ccccn1` [Compound 3, N-(3-Chloro-4-(4-fluoro-1,3-dioxoisoindolin-2-yl)phenyl)-2-picolinamide], the “agonist or antagonist activity at mGlu1” value in the data set on mGlu1a is “little activity”. For the same compound, the “agonist or antagonist activity at mGlu5” value in the data set with mGlu5a was “little activity”. For the same compound, the “agonist or antagonist activity at mGlu8” value on mGlu8 was “little activity”. Moreover, the “stability in neutral media” value in data set [3] (0.1 M ammonium formate water–acetonitrile solution) is on record as “two side products were detected”. The “stability in acidic media” value in data set [3] (acidic media) is on record as “minimal hydrolysis products”.

Take `Cc1cccc2c1C(=O)N(c1ccc(NC(=O)c3ccccn3)cc1Br)C2=O` [Compound 5]: in the data set on human mGlu4, the pIC50 is 7.92. For the same compound, in the data set on mGlu4 [1], the pEC50 was 7.00.
